Measurements: US7723058B2, “Test system for the determination of in-vivo active hemostasis proteases in biological fluids and/or the usage thereof to determine the in-vivo activation of hemostasis” (priority 2001, dated 2010)
Where a SMILES comes first, the peptide text is derived from it. [ ]: non-standard residue; d: D form. The star is where a group is joined. dChg = N[C@@H](C(=O)O)C1CCCCC1; pNA = O=[N+]([O-])c1ccc(N*)cc1

Experiments:
Format in all cases: biochemical
normal plasma = assay: Inhibition of the 1-step CPC by arginine; settings: plasmatic concentrations of arginine above 100 mM
Procedure: The CPC-test was performed in the 1-step mode as follows: 100 μl normal plasma, containing increasing concentrations of arginine (0-300 mM), pH 8.7 were incubated with 50 μl 1.7 mM HD-CHG-Ala-Arg-pNA in aqua dest. and 50 μl Pathromtin SL®, The increase in absorbance/t (t=0-10 min RT) was determined. Result: at plasmatic concentrations of arginine above 100 mM the Pathromtin SL®-CPC is decreased to 0% (compared to a normal plasma without arginine=100%),

bovine thrombin = target: T1, bovine thrombin (Bos taurus, UniProt P00735); assay: Determination of the Km-value for thrombin in plasma; settings: thrombin in plasma after addition of 120 mlU/ml thrombin; 37° C.; read-out: substrate concentration at halfmaximal velocity (Km-value)
T1 construct: activity of thrombin in plasma after addition of 120 mlU/ml thrombin (F IIa); purchased DadeBehring
Procedure: 1. Normal EDTA-plasma with 250 mM arginine, pH 8.7, and 2. normal EDTA-plasma, supplemented with 120 mlU/ml bovine thrombin and 30 min thereafter with 250 mM arginine, pH 8.7, were incubated with 50 μl HD-CHG-Ala-Arg-pNA (0-6.67 mM final) in aqua dest, Delta A/3 h (37° C.) was measured and the value of 1. was subtracted from the value of 2. The resulting difference corresponds to the activity of thrombin in plasma after addition of 120 mlU/ml thrombin (F IIa). Result the maximal enzyme velocity is 800 mA/3 h the substrate concentration at halfmaximal velocity (Km-value) is 0.3 mM.

[1] = test system: normal EDTA-Plasma supplemented with bovine thrombin (pathoplasma); assay: GACA, optimization of the concentration of substrate, pathoplasma
Procedure: Before and after the incubation the extinction at 405 nm was determined.
The ratio of the extinctions of pathoplasma and normal plasma approximates the value of 1 at final substrate concentrations >1.5 mM. The higher this value the more specific is the assays for pathologic activation of hemostasis, here imitated by addition of 120 mlU/ml bovine thrombin. This ratio reaches maximal values at final substrate concentrations ≦1 mM. However, the maximal change in extinction decreases at low substrate concentrations, especially at substrate concentrations below 0.3 mM, i.e. substrate exhaustion occurs. Therefore the final substrate concentration in the GACA should be between 0.3 mM and 1.0 mM, preferentially between 0.5 mM and 0.8 mM, particularly at 0.56 mM. At this final substrate concentration the assay is very specific for activation of hemostasis, and consequently the determination of CPC (approach B) can be neglected where appropriate. Thus, the GACA-value corresponds to the uGACA-value at a final substrate concentration of up to 0.8 mM, i.e. GACA=approach A (without correction is by approach B). After addition of thrombin to EDTA-plasma 90% of thrombin is inactivated, in the GACA only 10% of the added enzyme activity can be detected.

[2] = Standardization of GACA with a pure enzyme-reagent / FEIBA; settings: pure enzyme in 500 mM arginine, 2% Hämaccel, 0.1% Triton X 100
Procedure: The GACA was performed with 100 μl pure bovine thrombin (0-18 mlU/ml; DadeBehring), pure bovine Factor Xa (0-150 pkat/ml) or a Factor-Eight-Inhibitor-Bypassing-Activity-concentrate (0-2.6 units/ml; FEIBA®, Immuno, Wien) in 500 mM arginine, 2% Hämaccel®, 0.1% Triton X 100® (substrate here=HD-CHG-Ala-Arg-pNA. Additional samples were Control Plasma N® (CPN, DadeBehring) or CPN supplemented with FEIBA (0-2.6 units/ml). The incubation was varied from 0 to 4 h. The respective change in extinction was measured. Result: There appears a linear relationship between the thrombin- or factor Xa-concentration used and the resulting change in extinction, and also between incubation time and change in extinction. 6 mlU/ml IIa or 45 pkat/ml Xa result in a change in extinction, that corresponds to that of normal plasma (100% GACA). Thus, the GACA can be calibrated and standardized with pure thrombin- or factor Xa-reagent. CPN with 2.6 units/ml FEIBA has a GACA-value of approx. 200%, i.e. this addition of FEIBA to CPN increases the GACA-value from 100% to […].

CPN = assay: Aprotinin titration in CPN; settings: 50 min 37° C.
Procedure: (§1) 25 μl plasma of a pancreatitis-patient (citrated), 25 μl CPN, 25 μl 36 pkat/ml bovine Factor Xa in PBS, 0.1% Triton X 100®, were incubated with 25 μl assay buffer, containing 600 mM NaHCO3, ph 8.7 with and without 600 mM arginine, 25 μl 25 mM chloramines T®, 25 μl 3 mM N-α-Z-D-Arg-Gly-Arg-pNA 2HCl (S-2765®; Chromogenix, Mölndal, Sweden) and 25 μl Aprotinin (0, 2, 20, 200, 2000, 20000 KIU/ml) for 50 min at 37° C. and the increase in extinction at 405 nm during this incubation time was determined with a microtiterplate-photometer.

active trypsin = assay: Detection of active trypsin in plasma, aprotinin titration, pancreatitis plasma; settings: 50 min 37° C.
Procedure: as §1

bovine Factor Xa = target: T2, bovine Factor Xa (Bos taurus, UniProt P00743); assay: Aprotinin on pure factor Xa; settings: 36 pkat/ml bovine Factor Xa; substrate S-2765
T2 construct: 25 μl 36 pkat/ml bovine Factor Xa in PBS
T2 sequence (P00743 234-492 limits assumed): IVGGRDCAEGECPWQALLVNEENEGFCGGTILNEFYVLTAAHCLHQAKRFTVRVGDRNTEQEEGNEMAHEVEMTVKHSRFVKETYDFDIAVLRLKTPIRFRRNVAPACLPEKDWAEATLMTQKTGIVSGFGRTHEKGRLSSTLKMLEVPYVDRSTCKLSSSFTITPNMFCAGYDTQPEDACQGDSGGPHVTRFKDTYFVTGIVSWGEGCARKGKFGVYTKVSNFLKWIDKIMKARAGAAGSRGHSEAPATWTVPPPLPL
T2 sequence (P00743 41-180 partner limits assumed): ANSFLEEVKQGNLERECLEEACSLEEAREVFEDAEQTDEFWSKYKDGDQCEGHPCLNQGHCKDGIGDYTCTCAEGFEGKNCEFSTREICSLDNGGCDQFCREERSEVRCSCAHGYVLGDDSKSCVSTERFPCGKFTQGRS
Procedure: as §1, with “[…],” for “25 μl plasma of a pancreatitis-patient (citrated), 25 μl CPN, 25 μl 36 pkat/ml bovine Factor Xa in PBS,”

Control Plasma N® (CPN) = assay: Comparison of different CPC-approaches; settings: CPN; approaches B) and C)
Procedure: For n=22 citrated plasmas of patients and the Control Plasma N® (CPN) the following CPC-approaches were performed, 2-step-approaches A, B, C and 1-step-approaches D, E, F. • A) 50 μl Plasma+25 μl Pathromtin SL® (SiO2) • B) 50 μl Plasma+25 μl Pathromtin® (kaolin, in H2O twofold diluted) • C) 50 μl Plasma+25 μl Neothromtin® (ellagic acid)
3 min RT time of activation; +25 μl 1.7 mM HD-CHG-Ala-Arg-pNA, 750 mM arginine, 6.4 g/l EDTA, pH 8.7 • D) 50 μl Plasma+25 μl 1.7 mM CH3SO2-D-CHG-Gly-Arg-pNA • E) 50 μl Plasma+13 μl 1.5 M arginine, pH 8.7, +50 μl 1.7 mM CH3SO2-D-CHG-Gly-Arg-pNA • F) 50 μl Plasma+25 μl 1.7 mM HD-CHG-Ala-Arg-pNA in H2O+25 μl Pathromtin SL®
Determination of delta A at 405 nm (RT). The respective changes in extinction were correlated with each other. Result: Pathromtin SL®-2-step-CPC correlated with Pathromtin SL®-1-step-CPC with r=0.798 (delta A/13 min (RT) for CPN in 2-step-CPC=354 mA; delta A/2 min (RT) for CPN-547 mA, i.e. in the 1-step-CPC a […] higher Thrombin-Like Activity is generated compared with the 2-step-CPC; the corresponding values for approaches B) and C) are approx. 30% or 20% lower, respectively. […] Thus, even in arginine-stabilized plasma the amidolytic activity against CH3SO2-D-CHG-Gly-Arg-pNA can reliably be determined, what is valid for chromogenic substrates with a CH3SO2-group.

normal plasma (citrated) = assay: Optimization of the test concentration of contact phase activator in the CPC
Procedure: To optimize the contact phase activator in the CPC 100 μl • a) Neothromtin® (0.6 g/l ellagic acid (3 ml vial Dade Behring in 1.5 ml H2O) • b) Pathromtin® (5 g/l Kaolin, Dade Behring) • c) Pathromtin SL® (SiO2, Dade Behring) in 1:1, 1:2, 1:4, 1:8, 1:16, 1:32, 1:64, 1:128 dilution with H2O or for control 100 μl H2O were incubated with 100 μl 1.5 mmol/l HD-CHG-Ala-Arg-pNA in PBS and with 100 μl normal plasma (citrated) for 4 min (RT). The increase In extinction (405 nm)/4 min was determined.

[3] = 25 μl 2 KIU/ml, absence of arginine
[4] = 25 μl 2 KIU/ml, presence of arginine
[5] = 25 μl 20 KIU/ml, absence of arginine
[6] = 25 μl 20 KIU/ml, presence of arginine
[7] = 25 μl 200 KIU/ml, absence of arginine
[8] = 25 μl 200 KIU/ml, presence of arginine
[9] = 25 μl 2000 KIU/ml, absence of arginine
[10] = 25 μl 2000 KIU/ml, presence of arginine
[11] = 25 μl 20000 KIU/ml, absence of arginine
[12] = 25 μl 20000 KIU/ml, presence of arginine

Compound: N=C(N)NCCC[C@H](N)C(=O)O [arginine]
- Pathromtin SL®-CPC compared to a normal plasma without arginine=100% (normal plasma): 0%

Compound: C[C@H](NC(=O)[C@H](N)C1CCCCC1)C(=O)N[C@@H](CCCNC(=N)N)C(=O)Nc1ccc([N+](=O)[O-])cc1 [HD-CHG-Ala-Arg-pNA, HD-CHG-Ala-Arg-pNA.2AcOH] (H-[dChg]-Ala-Arg-pNA)
- Km (bovine thrombin): 300 µM

Compound: thrombin: pure bovine thrombin (DadeBehring)
- thrombin inactivated after addition to EDTA-plasma [1]: 90%
- added enzyme activity that can be detected in the GACA ([1]; after addition of thrombin to EDTA-plasma): 10%
- concentration giving a change in extinction that corresponds to normal plasma (100% GACA) [2]: 6 mlU/ml

Compound: aprotinin
- increase in extinction in the CPN (CPN; [3]): 134 mA
- increase in extinction in the CPN (CPN; [4]): 133 mA
- increase in extinction in the CPN (CPN; [5]): 135 mA
- increase in extinction in the CPN (CPN; [6]): 126 mA
- increase in extinction in the CPN (CPN; [7]): 108 mA
- increase in extinction in the CPN (CPN; [8]): 126 mA
- increase in extinction in the CPN (CPN; [9]): 118 mA
- increase in extinction in the CPN (CPN; [10]): 125 mA
- increase in extinction in the CPN (CPN; [11]): 124 mA
- increase in extinction in the CPN (CPN; [12]): 123 mA
- increase of extinction (active trypsin; [3]): 733 mA
- increase of extinction (active trypsin; [4]): 778 mA
- increase of extinction (active trypsin; [5]): 715 mA
- increase of extinction (active trypsin; [6]): 709 mA
- increase of extinction (active trypsin; [7]): 531 mA
- increase of extinction (active trypsin; [8]): 685 mA
- increase of extinction (active trypsin; [9]): 294 mA
- increase of extinction (active trypsin; [10]): 497 mA
- increase of extinction (active trypsin; [11]): 103 mA
- increase of extinction (active trypsin; [12]): 259 mA
- inhibition of pure factor Xa (bovine Factor Xa): not inhibited

Compound: O=c1oc2c(O)c(O)cc3c(=O)oc4c(O)c(O)cc1c4c23 [ellagic acid]
- 2-step-CPC value lower than with Pathromtin SL® (Control Plasma N® (CPN)): ~20%
- test concentration at optimal activity of protease (normal plasma (citrated); CPC, 4 min RT): 0.05 g/L
- delta A (normal plasma (citrated); at optimal test concentration of contact phase activator, 405 nm, RT): 1443 mA/4 min
